According to patent US20250127790A1, “COMBINATION THERAPY USING VPS34 INHIBITORS” (Deciphera Pharmaceuticals, LLC, priority 2021, published 2025):

Experiments:
[1] = system: CT26 colorectal cancer cells; test: qRT-PCR, combination with cGAMP, CT26 cells; type: cell-based, Mouse; conditions: 24 hours, 5 μM Compound 1 or 10 μM Compound 2, 10 mg/mL cGAMP
Method: (§1) CT26 cells were treated for 24 hours with DMSO or VPS34 inhibitors (5 μM Compound 1 or 10 μM Compound 2) in combination with 10 mg/mL STING agonist cGAMP (green bars). Cells were washed with PBS and RNA was isolated using the PureLink RNA kit (#12183018A, Thermo Fisher Scientific) according to the manufacturer's protocol. Genomic DNA was removed using DNA-binding columns (RNeasy plus kit, #74134, Qiagen) and/or DNase treatment (#12185010, Thermo Fisher Scientific). RNA was quantified using NanoDrop (Thermo Fisher Scientific) and 50 ng/μL RNA was used for cDNA synthesis with SuperScript IV VILO Master Mix (#11756050, Thermo Fisher Scientific). Quantitative RT-PCR (qRT-PCR) was run with diluted cDNA (1:25 or 1:12.5), PowerUp SYBR Green Master Mix (#A25741, Thermo Fisher Scientific), and 200 nM primers (see below) on a CFX Connect RT-PCR system (BioRad). Data was analyzed using the ΔΔCT method. Results are mean±SEM of three independent experiments.

[2] = system: CT26 colorectal cancer cells; test: Cytokine secretion assay, combination with cGAMP, CT26 cells; type: cell-based, mouse; conditions: 24 hours, 5 μM Compound 1 or 10 μM Compound 2, 10 mg/mL cGAMP
Method: as §1
(§2) Cell culture medium was centrifuged at 1600 rpm for 10 min at 4° C. and obtained supernatant stored at −80° C. Cytokine levels were quantified using following Meso Scale Discovery (MSD) assays: mouse U-PLEX RANTES/CCL5 (#K152A2K) and U-PLEX IP-10/CXCL10 (#K152UFK). Assays were run on the SECTOR Quickplex Imager and analyzed using Discovery Workbench version 4.0 (MSD).

4T1 breast cancer cells [3] = test: qRT-PCR, combination with cGAMP, 4T1 cells; type: cell-based, Mouse; conditions: 24 hours, 5 μM Compound 1 or 10 μM Compound 2, 10 mg/ml cGAMP
Method: as §1, with “4T1” for “CT26”, “mg/ml” for “mg/mL”

4T1 breast cancer cells [4] = test: Cytokine secretion assay, combination with cGAMP, 4T1 cells; type: cell-based, mouse; conditions: 24 hours, 5 μM Compound 1 or 10 μM Compound 2, 10 mg/ml cGAMP
Method: as §1, with “4T1” for “CT26”, “mg/ml” for “mg/mL”
as §2

YUMM 1.7 melanoma cells [5] = test: qRT-PCR, combination with cGAMP, YUMM1.7 cells; type: cell-based, Mouse; conditions: 24 hours, 5 μM Compound 1 or 10 μM Compound 2, 10 mg/ml cGAMP
Method: as §1, with “YUMM1.7” for “CT26”, “mg/ml” for “mg/mL”

YUMM 1.7 melanoma cells [6] = test: Cytokine secretion assay, combination with cGAMP, YUMM1.7 cells; type: cell-based, mouse; conditions: 24 hours, 5 μM Compound 1 or 10 μM Compound 2, 10 mg/ml cGAMP
Method: as §1, with “YUMM1.7” for “CT26”, “mg/ml” for “mg/mL”
as §2

Nc1nc2c(ncn2[C@@H]2O[C@@H]3COP(=O)(O)O[C@H]4[C@@H](O)[C@H](n5cnc6c(N)ncnc65)O[C@@H]4COP(=O)(O)O[C@@H]2[C@@H]3O)c(=O)[nH]1 [cGAMP, reference compound]
increased: CCL5 mRNA expression [1] | CXCL10 mRNA expression [1] | CCL5 protein secretion [2] | CXCL10 protein secretion [2] | CCL5 mRNA expression (4T1 breast cancer cells [3]) | CXCL10 mRNA expression (4T1 breast cancer cells [3]) | CCL5 protein secretion (4T1 breast cancer cells [4]) | CXCL10 protein secretion (4T1 breast cancer cells [4]) | CCL5 mRNA expression (YUMM 1.7 melanoma cells [5]) | CXCL10 mRNA expression (YUMM 1.7 melanoma cells [5]) | CCL5 protein secretion (YUMM 1.7 melanoma cells [6]) | CXCL10 protein secretion (YUMM 1.7 melanoma cells [6])
